25 compounds from US7504497B2, “Orally bioavailable compounds and methods for inhibiting platelet aggregation” (Inspire Pharmaceuticals, Inc., priority 2005, dated 2009) can be followed below.

The structures appear in SMILES notation. Like-named read-outs stand apart in the source and are kept apart here. Bounds are passed on as bounds.

The subject of one data set is washed human platelets. The data set is described as follows: Inhibition of ADP-induced platelet aggregation in washed human platelets. It counts as cell-based. The conditions noted are these: for IC50: ADP agonist challenge typically 1-5 μM, average of two experiments or more; for % inhibition of ADP-induced platelet aggregation at fixed concentration: antagonist at 0.3 μM, ADP typically 1-5 μM. The procedure: Isolation of Platelets: Human blood is obtained from informed healthy adult volunteers. Blood is collected into one-sixth volume of acid/citrate/dextrose (ACD) buffer (85 mM sodium citrate, 65 mM citric acid, and 110 mM glucose). Collected blood is placed in a water bath at 37° C. for 30 minutes. Blood is then centrifuged at 275×g for 16 minutes at room temperature and the platelet-rich plasma is removed and centrifuged at 2200×g for 13 minutes at room temperature. The platelet pellet is resuspended in 40 mL of HEPES-buffered Tyrode's solution (137 mM NaCl, 2.7 mM KCl, 1 mM MgCl2, 2 mM CaCl2, 12 mM NaHCO3, 0.36 mM NaH2PO4, 5.5 mM glucose, 5 mM HEPES pH 7.4, 0.35% bovine serum albumin or 0.35% human serum albumin) containing 10 U/mL heparin and 5 μM (final concentration) prostaglandin I2 (PGI2). The platelet suspension is incubated in a 37° C. water bath for 10 minutes and then 5 μM (final conc.) PGI2 is added just before centrifugation at 1900×g for 8 minutes. The resulting pellet is resuspended in 40 mL of HEPES-buffered Tyrode's solution containing 5 μM (final concentration) PGI2 and then is incubated for 10 minutes in a 37° C. water bath. A small aliquot (500 μL) of the platelet suspension is removed for platelet counting. Prior to centrifugation 5 μM (final concentration) PGI2 is added to the suspension and then the suspension is centrifuged at 1900×g for 8 minutes. The pellet is resuspended at a density of 5×10^8 cells/mL in HEPES-buffered Tyrode's solution containing 0.05 U/mL apyrase. Aggregation Studies: ADP-induced platelet aggregation is determined by measuring the transmission of light through a 0.5 ml suspension of stirred (1000 rpm) washed platelets in a lumi-aggregometer at 37° C. (Chrono-Log Corp. Havertown, Pa.). The baseline of the instrument is set using 0.5 ml of Hepes-buffered Tyrode's solution. Prior to aggregation measurements, the platelet suspension is supplemented with 1 mg/ml fibrinogen. Platelet aggregation is initiated by the addition of indicated concentrations of ADP or other agonists, and the light transmission is continuously recorded for at least 8 min. When inhibitors of platelet aggregation are tested, platelets are incubated for 2 min in the presence of indicated concentrations of inhibitor before addition of ADP or other agonists, and the response is recorded for at least 8 min. The potency of agonists and inhibitors of platelet aggregation is calculated from both the rate of aggregation and the maximal extent of aggregation obtained for each determination by fitting the data to a four-parameter logistic equation using the GraphPad software package (GraphPad Corp. San Diego, Calif.).
IC50 values represent the concentration of antagonist necessary to inhibit by 50% the aggregation elicited by a given concentration of ADP.
The agonist challenge (ADP) was typically in the range of 1-5 μM. Data are presented in μM and are from the average of two experiments or more.

Data set [1] in a line: Oral bioavailability (%F) following oral vs intravenous administration in rats. The conditions noted are these: rat; for bioavailability: male, Sprague-Dawley, plasma, po. The format is in vivo, male Sprague-Dawley rats. The procedure: These compounds were administered intravenously and orally to compare the extent of absorption by the oral route to the intravenous route and evaluate their ability to inhibit platelet aggregation in vivo. The following brief protocol describes the experiment methodology.
While anesthetized by an inhaled anesthetic, male Sprague-Dawley rats were surgically cannulated in the jugular vein for blood sample collection in order to assess systemic exposure of the compound after oral or intravenous administration and platelet aggregation. For the oral studies, compounds were administered as suspensions of the free acid or sodium salt forms, or as solutions of the sodium salt forms. Animals were allowed 48 hours to recover prior to dose administration.
A blood samples was taken immediately prior to compound administration. This sample was used to assess the baseline platelet aggregation and potential drug interference in the LC/MS/MS analysis. Compound was administered by either oral gavage or tail vein and blood samples were withdrawn for plasma analysis at up to 12 time points ranging from 5 min to 24 hours following compound administration. LC/MS/MS was used to measure the amount of compound in the plasma after both routes of administration and the plasma exposure was compared between the oral and IV routes (%F). %F is the % of the administered dose that is absorbed after oral administration. […] The in vivo platelet aggregation data that was acquired at similar time points was then compared to the plasma concentration and a calculation of the concentration needed to inhibit platelet aggregation was made.
The bioavailability of certain compounds of the present invention was determined following oral administration in rats, according to the protocol of Example 5. The compounds were administered as either a suspension of the free acid forms, a suspension of the sodium salt forms, or as a solution of the sodium salt forms.

Where [2] appears, read: Homo sapiens, Platelet, read-out: PLATELET DATA IC50 Washed Platelets, washed human platelets.
The mark [3] stands for this setting: administered as solution of the sodium salt form, read-out: % F, salt solution.
Setting [4] is: administered as suspension of the free acid form, read-out: % F, free acid suspension.
Where [5] appears, read: read-out: PLATELET DATA IC50 Washed Platelets, washed human platelets.
Where [6] appears, read: administered as suspension of the sodium salt form, read-out: % F, salt suspension.

As to `CCNC(=O)Nc1ncnc2c1ncn2C1OC(COc2ccccc2C(=O)O)C2O[C@H](/C=C/c3ccccc3)OC21` (some centres unmarked) [Compound 1], in the data set with washed human platelets (setting [2]), the IC50 was determined as 319 nM. In addition, the results for the bioavailability in data set [1] (setting [3]) and in data set [1] (setting [4]) were roughly 39% and 8 to 13%, respectively. In addition, the “bioavailability following oral administration (in words)” value in data set [1] was “high bioavailability”. Moreover, the “% F, free acid suspension” value in data set [1] (administered as suspension of the free acid form) is reported as 8.7-13.1%.

For `CCNC(=O)Nc1ncnc2c1ncn2C1OC(COc2c(OC)cccc2C(=O)O)C2O[C@H](/C=C/c3ccccc3)OC21` (some centres unmarked) [Compound 2], in the data set with washed human platelets (setting [2]), the concentration for half-maximal inhibition (IC50) was found to be 279 nM.

On to `CCNC(=O)Nc1ncnc2c1ncn2C1OC(COc2cc(OC)ccc2C(=O)O)C2O[C@H](/C=C/c3ccccc3)OC21` (some centres unmarked) [Compound 3], for which the concentration for half-maximal inhibition (IC50) with washed human platelets (setting [2]) came out at 404 nM.

As for `CCNC(=O)Nc1ncnc2c1ncn2C1OC(COc2ccc(F)cc2C(=O)O)C2O[C@H](/C=C/c3ccccc3)OC21` (some centres unmarked) [Compound 4], the IC50 in the data set on washed human platelets (setting [2]) is 105 nM.

With `CCNC(=O)Nc1ncnc2c1ncn2C1OC(COc2ccc(C)cc2C(=O)O)C2O[C@H](/C=C/c3ccccc3)OC21` (some centres unmarked) [Compound 5], the IC50 in the data set with washed human platelets (setting [2]) was 536 nM.

As to `CCNC(=O)Nc1ncnc2c1ncn2C1OC(COc2ccccc2CC(=O)O)C2O[C@H](/C=C/c3ccccc3)OC21` (some centres unmarked) [Compound 6], the IC50 in the data set on washed human platelets (setting [2]) turned out to be 297 nM.

In the case of `CCNC(=O)Nc1ncnc2c1ncn2C1OC(COc2cc(F)ccc2C(=O)O)C2O[C@H](/C=C/c3ccccc3)OC21` (some centres unmarked) [Compound 7], the IC50 with washed human platelets (setting [2]) was 385 nM.

For the compound `CCNC(=O)Nc1ncnc2c1ncn2C1OC(COc2cccc(F)c2C(=O)O)C2OC(/C=C/c3ccccc3)OC21` (centres unmarked) [Compound 8], the IC50 with washed human platelets (setting [2]) came to 134 nM.

Take `CCNC(=O)Nc1ncnc2c1ncn2C1OC(COc2ccc(OC)cc2C(=O)O)C2O[C@H](/C=C/c3ccccc3)OC21` (some centres unmarked) [Compound 9]: in the data set on washed human platelets (setting [2]), the IC50 worked out at 744 nM.

As for `CCNC(=O)Nc1ncnc2c1ncn2C1OC(COc2ccccc2CC(=O)O)C2OC(c3ccc(F)cc3)OC21` (centres unmarked) [Compound 11], in the data set with washed human platelets (setting [2]), the IC50 is 570 nM.

For `CCNC(=O)Nc1ncnc2c1ncn2C1OC(COc2ccccc2C(=O)O)C2O[C@H](c3ccc(F)cc3)OC21` (some centres unmarked) [Compound 12], the IC50 in the data set on washed human platelets (setting [2]) turned out to be 200 nM.

Take `CCNC(=O)Nc1ncnc2c1ncn2C1OC(COc2ccc(F)cc2C(=O)O)C2O[C@H](c3ccc(F)cc3)OC21` (some centres unmarked) [Compound 13]: the IC50 was less than 100 nM with washed human platelets (setting [2]) and 89 nM with washed human platelets (setting [5]).

As for `CCNC(=O)Nc1ncnc2c1ncn2C1OC(COc2cc(OC)ccc2C(=O)O)C2OC(c3ccc(F)cc3)OC21` (centres unmarked) [Compound 14, 2-[6-[6-(3-Ethyl-ureido)-purin-9-yl]-2-(4-fluoro-phenyl)-tetrahydro-furo[3,4-d][1,3]dioxol-4-ylmethoxyl]-4-methoxy-benzoic acid], the IC50 in the data set with washed human platelets (setting [2]) is less than 100 nM; in the data set with washed human platelets (setting [5]), 96 nM. In addition, the bioavailability is roughly 44% in data set [1] (setting [3]) and 21.5 to 22.1% in data set [1] (setting [6]). Besides, the “bioavailability following oral administration (in words)” value in data set [1] is “high bioavailability”.

For `CCCNC(=O)Nc1ncnc2c1ncn2C1OC(COc2ccccc2C(=O)O)C2O[C@H](c3ccc(F)cc3)OC21` (some centres unmarked) [Compound 15], the IC50 in the data set with washed human platelets (setting [2]) stood at 190 nM. Further, the bioavailability in data set [1] (setting [3]) was roughly 53%; in data set [1] (setting [4]), 14.3 to 14.6%; in data set [1] (setting [6]), 29.5 to 29.9%. Moreover, the “bioavailability following oral administration (in words)” value in data set [1] is “high bioavailability”. Further, the “% F, salt solution” value in data set [1] (administered as solution of the sodium salt form) is on record as 52.5-53.4%.

In the case of `CCCCNC(=O)Nc1ncnc2c1ncn2C1OC(COc2c(OC)cccc2C(=O)O)C2O[C@H](c3ccc(F)cc3)OC21` (some centres unmarked) [Compound 19], the IC50 was less than 100 nM in the data set on washed human platelets (setting [2]) and 62 nM in the data set on washed human platelets (setting [5]).

Regarding `CCCNC(=O)Nc1ncnc2c1ncn2C1OC(COc2cc(OC)ccc2C(=O)O)C2O[C@H](c3ccc(F)cc3)OC21` (some centres unmarked) [Compound 20], the IC50 is less than 100 nM in the data set with washed human platelets (setting [2]) and 92 nM in the data set on washed human platelets (setting [5]).

On to `CCCCNC(=O)Nc1ncnc2c1ncn2C1OC(COc2cc(OC)ccc2C(=O)O)C2O[C@H](c3ccc(F)cc3)OC21` (some centres unmarked) [Compound 21], for which the IC50 in the data set with washed human platelets (setting [2]) was less than 100 nM; in the data set on washed human platelets (setting [5]), 87 nM.

As for `COc1ccc(C(=O)O)c(OCC2OC(n3cnc4c(NC(=O)NC5CC5)ncnc43)C3O[C@@H](c4ccc(F)cc4)OC23)c1` (some centres unmarked) [Compound 22], the IC50 with washed human platelets (setting [2]) was less than 100 nM; with washed human platelets (setting [5]), 99 nM.

`COc1ccc(C(=O)O)c(OCC2OC(n3cnc4c(NC(=O)NCC5CC5)ncnc43)C3O[C@@H](c4ccc(F)cc4)OC23)c1` (some centres unmarked) [Compound 23]: the IC50 was less than 100 nM with washed human platelets (setting [2]) and 99 nM in the data set with washed human platelets (setting [5]).

For `CCNC(=O)Nc1ncnc2c1ncn2C1OC(COc2c(F)cccc2C(=O)O)C2O[C@H](c3ccc(F)cc3)OC21` (some centres unmarked) [Compound 25], the “% inhibition of ADP-induced platelet aggregation at fixed concentration” value (from here on “% inhibition”) in the data set on washed human platelets (washed human platelets) is reported as 46% inh. @ 0.3 μM.

With `CCCNC(=O)Nc1ncnc2c1ncn2C1OC(COc2cc(F)ccc2C(=O)O)C2O[C@H](c3ccc(F)cc3)OC21` (some centres unmarked) [Compound 28], the “% inhibition” value in the data set on washed human platelets (washed human platelets) came to 64% inh. @ 0.3 μM.

For `CCCNC(=O)Nc1ncnc2c1ncn2C1OC(COc2cccc(F)c2C(=O)O)C2O[C@H](c3ccc(F)cc3)OC21` (some centres unmarked) [Compound 30], the “% inhibition” value in the data set on washed human platelets (washed human platelets) was 56% inh. @ 0.3 μM.

Take `COc1cccc(C(=O)O)c1OCC1OC(n2cnc3c(NC(=O)NC4CC4)ncnc32)C2O[C@@H](c3ccc(F)cc3)OC12` (some centres unmarked) [Compound 33]: in the data set on washed human platelets (washed human platelets), the “% inhibition” value is reported as 56% inh. @ 0.3 μM.

For `CCNC(=O)Nc1ncnc2c1ncn2C1OC(COc2ccc(OC)cc2C(=O)O)C2O[C@H](c3ccc(F)cc3)OC21` (some centres unmarked) [Compound 34], the “% inhibition” value in the data set with washed human platelets (washed human platelets) is on record as 52% inh. @ 0.3 μM.

On to `O=C(Nc1ncnc2c1ncn2C1OC(COc2cc(F)ccc2C(=O)O)C2O[C@H](c3ccc(F)cc3)OC21)NC1CC1` (some centres unmarked) [Compound 35], for which the “% inhibition” value in the data set with washed human platelets (washed human platelets) amounted to 61% inh. @ 0.3 μM.

A word on the IC50: it is the midpoint of a concentration-inhibition curve.
